Assay results reported in the NIST ThermoML archive (doi:10.1016/j.jct.2014.04.021).
Numbers after ± are expanded uncertainties.

Conditions: for mass density: 101.33 kPa, Liquid, Vibrating tube method; for Normal melting temperature: Crystal, DTA

Row | SMILES | Normal melting temperature | also measured
1 | CCCCCC[N+]1(C)CCCCC1.O=S(=O)([N-]S(=O)(=O)C(F)(F)F)C(F)(F)F | – | mass density (293 K): 1329.5 ± 1.1 kg/m3; mass density (298.15 K): 1325.4 ± 1.1 kg/m3
2 | CCCCn1cc[n+](C)c1.N#CC1=NC(C(F)(F)F)=NC1=C=[N-] | – | mass density (298.15 K): 1199.65 ± 1.5 kg/m3
3 | CCCCCC[n+]1cccc2ccccc21.O=S(=O)([N-]S(=O)(=O)C(F)(F)F)C(F)(F)F [1-hexylquinolinium bis(trifluoromethylsulfonyl)amide] | 45 ± 0.4 °C | –
4 | CCCCCC[n+]1ccc2ccccc2c1.O=S(=O)([N-]S(=O)(=O)C(F)(F)F)C(F)(F)F [N-hexylisoquinolinium bis(trifluoromethylsulfonyl)imide] | – | mass density (333.2 K): 1349.3 ± 1.8 kg/m3

Second part, led by results:

Row | Normal melting temperature | SMILES | also measured
5 | 92.7 ± 0.4 °C | C[n+]1ccn(CC#N)c1.N#Cc1nc(C(F)(F)F)[n-]c1C#N | –
6 | 98.6 ± 0.4 °C | OC[C@@H](O)[C@@H](O)[C@H](O)[C@@H](O)CO [D-sorbitol] | –
7 | 94.1 ± 0.4 °C | OC[C@@H](O)[C@H](O)[C@@H](O)CO [xylitol] | –
